Legend:
[1] = biological target: T1, Mcl-1/Bim interaction, recombinant human Mcl-1 (171-327) (Homo sapiens, UniProt Q07820); assay: Cell free Mcl-1: Bim Affinity Assay (Mcl-1 HTRF); format: binding
T1 construct: made in house
How it was run: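 TR-FRET competition assay with biotinylated human Bim peptide (residues 51-76); reaction plates incubated overnight before reading. IC50 values came from duplicate data fitted to a four-parameter sigmoidal competition curve.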

[2] = test system: OPM-2 human multiple myeloma cell line; assay: Cell Viability Assay (OPM-2 10 FBS); format: cell-based; conditions: OPM-2 cells, CellTiter-Glo
How it was run: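 ATP-based luminescence (CellTiter-Glo) measured after a 16 h compound treatment of OPM-2 cells seeded at 3000 cells/well in 10% FBS medium. IC50 values derived by 4-parameter logistic fitting of serial dilutions.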

[3] = TR-FRET, 0.1 nM Mcl-1 (171-327), 0.05 nM biotin-Bim (51-76)
[4] = Homo sapiens, OPM-2, 16 h, 16 h
[5] = cell free Mcl-1:Bim TR-FRET, recombinant human Mcl-1 (171-327)
[6] = Homo sapiens, OPM-2, 16 h, 16 h incubation

T1 sequence (Q07820 171-327): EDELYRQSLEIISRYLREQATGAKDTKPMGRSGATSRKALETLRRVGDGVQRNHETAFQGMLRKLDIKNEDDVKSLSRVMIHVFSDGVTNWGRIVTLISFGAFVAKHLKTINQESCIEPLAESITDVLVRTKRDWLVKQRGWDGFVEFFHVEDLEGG

Row | Structure (SMILES) | IC50 [1, 3] [nM] | IC50 [2, 4] [nM] | IC50 [1, 5] [nM] | also measured
1 | CN(C)C(=O)CN1CC/C=C/[C@H](O)[C@@H]2CC[C@H]2CN2C[C@@]3(CCCc4cc(Cl)ccc43)COc3ccc(cc32)C(=O)NS1(=O)=O [Example 24, 2-((1S,3′R,6′R,7′S,8′E)-6-chloro-7′-hydroxy-13′,13′-dioxido-15′-oxo-3,4-dihydro-2H,12′H-spiro[naphthalene-1,22′-[20]oxa[13]thia[1,12,14]triazatetracyclo[14.7.2.0^3,6.0^19,24]pentacosa[8,16,18,24]tetraen]-12′-yl)-N,N-dimethylacetamide] | 0.465 | 683 | – | –
2 | COCC[C@@H]1[C@@H](C)C/C=C/[C@H](OCCN2CCOCC2)[C@@H]2CC[C@H]2CN2C[C@@]3(CCCc4cc(Cl)ccc43)COc3ccc(cc32)C(=O)NS1(=O)=O (single isomer, unassigned) [Example 398] | 0.233 | – | – | IC50 ([2]; 16 h): 88.3 nM
3 | CO[C@H]1C/C=C/[C@H](O)[C@@H]2CC[C@H]2CN2C[C@@]3(CCCc4cc(Cl)ccc43)COc3ccc(cc32)C(=O)NS(=O)(=O)[C@@H]1CC(C)C (single isomer, unassigned) [Example 643] | – | 151 | 0.337 | –
4 | C[C@@H]1[C@@H](C)C/C=C/[C@H](OCCN(C)c2ccccn2)[C@@H]2CC[C@H]2CN2C[C@@]3(CCCc4cc(Cl)ccc43)COc3ccc(cc32)C(=O)NS1(=O)=O [Example 13, (1S,3′R,6′R,7′S,8′E,11′S,12′R)-6-chloro-11′,12′-dimethyl-7′-(2-(methyl(2-pyridinyl)amino)ethoxy)-3,4-dihydro-2H,15′H-spiro[naphthalene-1,22′-[20]oxa[13]thia[1,14]diazatetracyclo[14.7.2.0˜3,6˜.0˜19,24˜]pentacosa[8,16,18,24]tetraen]-15′-one 13′,13′-dioxide] | 0.685 | 312 | – | –
5 | C[C@H]1[C@H]2/C=C/[C@H](O)[C@@H]3CC[C@H]3CN3C[C@@]4(CCCc5cc(Cl)ccc54)COc4ccc(cc43)C(=O)NS(=O)(=O)[C@H]1CCC2 (single isomer, unassigned) [Example 111] | 30.8 | 17800 | – | –
6 | COCCN(C)C(=O)CO[C@H]1/C=C/C[C@H](C)[C@@H](C)S(=O)(=O)NC(=O)c2ccc3c(c2)N(C[C@@H]2CC[C@H]21)C[C@@]1(CCCc2cc(Cl)ccc21)CO3 [Example 299, 2-(((1S,3′R,6′R,7′S,8′E,11′S,12′R)-6-chloro-11′,12′-dimethyl-13′,13′-dioxido-15′-oxo-3,4-dihydro-2H-spiro[naphthalene-1,22′-[20]oxa[13]thia[1,14]diazatetracyclo[14.7.2.0^3,6.0^19,24]pentacosa [8,16,18,24]tetraen]-7′-yl)oxy)-N-(2-methoxyethyl)-N-methylacetamide] | 0.275 | 280 | – | –
7 | COC1C=CCC(OC)C(CC2CCCO2)S(=O)(=O)NC(=O)c2ccc3c(c2)N(CC2CCC21)CC1(CCCc2cc(Cl)ccc21)CO3 (single isomer, unassigned) [Example 642] | – | – | 0.539 | IC50 ([2]; 16 h): 351 nM
8 | O=C1NS(=O)(=O)[C@H]2CC[C@@H]2C/C=C/[C@H](O)[C@@H]2CC[C@H]2CN2C[C@@]3(CCCc4cc(Cl)ccc43)COc3ccc1cc32 (single isomer, unassigned) [Example 90] | 0.44 | 322 | – | –
9 | CCN1[C@@H](C)C/C=C/[C@H](O)[C@@H]2CC[C@H]2CN2C[C@@]3(CCCc4cc(Cl)ccc43)COc3ccc(cc32)C(=O)NS1(=O)=O (single isomer, unassigned) [Example 57] | 0.491 | 555 | – | –
10 | CO[C@H](C)C[C@@H]1CC/C=C/[C@H](OC)[C@@H]2CC[C@H]2CN2C[C@@]3(CCCc4cc(Cl)ccc43)COc3ccc(cc32)C(=O)NS1(=O)=O (single isomer, unassigned) [Example 549] | – | – | 0.554 | IC50 ([2]; 16 h): 285 nM
11 | C[C@@H]1[C@@H](C)C/C=C/[C@H](OCCN2CCS(=O)(=O)CC2)[C@@H]2CC[C@H]2CN2C[C@@]3(CCCc4cc(Cl)ccc43)COc3ccc(cc32)C(=O)NS1(=O)=O [Example 524, (1S,3′R,6′R,7′S,8′E,11′S,12′R)-6-chloro-7′-(2-(1,1-dioxido-4-thiomorpholinyl)ethoxy)-11′,12′-dimethyl-3,4-dihydro-2H,15′H-spiro[naphthalene-1,22′-[20]oxa[13]thia[1,14]diazatetracyclo[14.7.2.0^3,6.0^19,24]pentacosa [8,16,18,24]tetraen]-15′-one 13′,13′-dioxide] | – | 113 | 0.365 | –
12 | COC1CN(C(=O)CO[C@H]2/C=C/C[C@H](C)[C@@H](C)S(=O)(=O)NC(=O)c3ccc4c(c3)N(C[C@@H]3CC[C@H]32)C[C@@]2(CCCc3cc(Cl)ccc32)CO4)C1 [Example 307, (1S,3′R,6′R,7′S,8′E,11′S,12′R)-6-chloro-7′-(2-(3-methoxy-1-azetidinyl)-2-oxoethoxy)-11′,12′-dimethyl-3,4-dihydro-2H,15′H-spiro[naphthalene-1,22′-[20]oxa[13]thia[1,14]diazatetracyclo[14.7.2.0^3,6.0^19,24]pentacosa [8,16,18,24]tetraen]-15′-one 13′,13′-dioxide] | 0.127 | 302 | – | –
13 | CCC1CCC=CC(OC(C)C(N)=O)C2CCC2CN2CC3(CCCc4cc(Cl)ccc43)COc3ccc(cc32)C(=O)NS1(=O)=O (mixture of isomers) [Example 1006] | 0.81 | – | – | IC50 ([2]; 16 h incubation): 11600 nM

Now from value to compound, other results behind:

Row | IC50 [1, 3] [nM] | IC50 [2, 4] [nM] | IC50 [1, 5] [nM] | Structure (SMILES) | also measured
14 | – | 192 | 0.891 | CCOC(=O)NCCO[C@H]1/C=C/C[C@H](C)[C@@H](C)S(=O)(=O)NC(=O)c2ccc3c(c2)N(C[C@@H]2CC[C@H]21)C[C@@]1(CCCc2cc(Cl)ccc21)CO3 [Example 736, ethyl (2-(((1S,3′R,6′R,7′S,8′E,11′S,12′R)-6-chloro-11′,12′-dimethyl-13′, 13′-dioxido-15′-oxo-3,4-dihydro-2H-spiro[naphthalene-1,22′-[20]oxa[13]thia[1,14]diazatetracyclo[14.7.2.0^3,6.0^19,24]pentacosa[8,16,18,24]tetraen]-7′-yl)oxy)ethyl)carbamate] | –
15 | 0.616 | – | – | CC[C@@H]1CC/C=C/[C@H](OCc2nnn(C)n2)[C@@H]2CC[C@H]2CN2C[C@@]3(CCCc4cc(Cl)ccc43)COc3ccc(cc32)C(=O)NS1(=O)=O [Example 987, (1S,3′R,6′R,7′S,8′E,12′R)-6-chloro-12′-ethyl-7′-((2-methyl-2H-tetrazol-5-yl)methoxy)-3,4-dihydro-2H,15′H-spiro[naphthalene-1,22′-[20]oxa[13]thia[1,14]diazatetracyclo[14.7.2.0^3,6.0^19,24]pentacosa [8,16,18,24]tetraen]-15′-one 13′,13′-dioxide] | IC50 [2, 6]: 392 nM
16 | – | – | 0.45 | O=C1NS(=O)(=O)C2CC2CC=CC(O)C2CCC2CN2CC3(CCCc4cc(Cl)ccc43)COc3ccc1cc32 (single isomer, unassigned) [Example 796] | IC50 ([2]; 16 h): 195 nM
17 | – | 54.2 | 0.327 | C[C@@H]1[C@@H](C)C/C=C/[C@H](OCCN2CCOCC2)[C@@H]2CC[C@H]2CN2C[C@@]3(CCCc4cc(Cl)ccc43)COc3ccc(cc32)C(=O)NS1(=O)=O [Example 720, (1S,3′R,6′R,7′S,8′E,11′S,12′R)-6-chloro-11′,12′-dimethyl-7′-(2-(4-morpholinyl)ethoxy)-3,4-dihydro-2H,15′H-spiro[naphthalene-1,22′-[20]oxa[13]thia[1,14]diazatetracyclo[14.7.2.0^3,6.0^19,24]pentacosa [8,16,18,24]tetraen]-15′-one-13′, 13′-dioxide] | –
18 | 0.103 | – | – | CC[C@@H]1CC/C=C/[C@H](OCC(=O)O)[C@@H]2CC[C@H]2CN2C[C@@]3(CCCc4cc(Cl)ccc43)COc3ccc(cc32)C(=O)NS1(=O)=O [Example 992, (((1S,3′R,6′R,7′S,8′E,12′R)-6-chloro-12′-ethyl-13′,13′-dioxido-15′-oxo-3,4-dihydro-2H-spiro[naphthalene-1,22′-[20]oxa[13]thia[1,14]diazatetracyclo[14.7.2.0^3,6.0^19,24]pentacosa [8,16,18,24]tetraen]-7′-yl)oxy)acetic Acid] | IC50 [2, 6]: 2340 nM
19 | 0.872 | – | – | CC[C@@H]1CC/C=C/[C@H](OCC(=O)NCCN(C)C)[C@@H]2CC[C@H]2CN2C[C@@]3(CCCc4cc(Cl)ccc43)COc3ccc(cc32)C(=O)NS1(=O)=O [Example 995, 2-(((1S,3′R,6′R,7′S,8′E,12′R)-6-chloro-12′-ethyl-13′,13′-dioxido-15′-oxo-3,4-dihydro-2H-spiro[naphthalene-1,22′-[20]oxa[13]thia[1,14]diazatetracyclo[14.7.2.0^3,6.0^19,24]pentacosa [8,16,18,24]tetraen]-7′-yl)oxy)-N-(2-(dimethylamino)ethyl)acetamide] | IC50 [2, 6]: 1680 nM
20 | 23.5 | – | – | C[C@@H]1/C=C/[C@H](O)[C@@H]2CC[C@H]2CN2C[C@@]3(CCCc4cc(Cl)ccc43)COc3ccc(cc32)C(=O)NS(=O)(=O)[C@@H](C)C1 (single isomer, unassigned) [Example 1022] | IC50 ([2]; 16 h incubation): 22700 nM
21 | 0.183 | – | – | C[C@@H]1[C@@H](C)S(=O)(=O)NC(=O)c2ccc3c(c2)N(C[C@@H]2CC[C@H]2[C@@H](O)/C=C/[C@@H]1C)C[C@@]1(CCCc2cc(Cl)ccc21)CO3 (single isomer, unassigned) [Example 1041] | IC50 [2, 6]: 77.2 nM
22 | 0.421 | – | – | O=C1NS(=O)(=O)C[C@@H](CO)C/C=C/[C@H](O)[C@@H]2CC[C@H]2CN2C[C@@]3(CCCc4cc(Cl)ccc43)COc3ccc1cc32 [Example 1086, (1S,3′R,6′R,7′S,8′E,11′R)-6-chloro-7′-hydroxy-11′-(hydroxymethyl)-3,4-dihydro-2H,15′H-spiro [naphthalene-1,22′-[20]oxa[13]thia[1,14]diazatetracyclo[14.7.2.0^3,6.0^19,24]pentacosa [8,16,18,24]tetraen]-15′-one 13′,13′-dioxide] | IC50 [2, 6]: 8650 nM

From patent US12091425B2 (AMGEN INC., priority 2016, dated 2024)
